Several values for one entry are separate records, joined by “and”; a condition that tells them apart may be missing. Identical values can stand only once. Inconclusive results and toxic doses are left out.
Test system: P388 leukemia ip, CD2F1 mice, survival T/C
Test: NCI In Vivo Anticancer Drug Screen. Data for tumor model P388 Leukemia (intraperitoneal) in CD2F1 (CDF1) mice
Details: endpoint: median survival time, higher = longer survival
In short: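 Mice carrying the transplanted tumor received test compound or vehicle. Survival was recorded in each group, and the value is the treated-group measurement divided by that of the vehicle-treated control group.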

[1] = dose: 100.0 mg/kg/injection, schedule: Q01DX001 (ip), vehicle: saline with Tween-80
[2] = dose: 200.0 mg/kg/injection, schedule: Q01DX001 (ip), vehicle: saline with Tween-80
[3] = dose: 400.0 mg/kg/injection, schedule: Q01DX001 (ip), vehicle: saline with Tween-80
[4] = dose: 50.0 mg/kg/injection, schedule: Q01DX009 (ip), vehicle: saline with Tween-80
[5] = dose: 100.0 mg/kg/injection, schedule: Q01DX009 (ip), vehicle: saline with Tween-80
[6] = dose: 200.0 mg/kg/injection, schedule: Q01DX009 (ip), vehicle: saline with Tween-80
[7] = dose: 25.0 mg/kg/injection, schedule: Q01DX009 (ip), vehicle: saline with Tween-80
[8] = dose: 50.0 mg/kg/injection, schedule: Q01DX009 (ip), vehicle: Klucel (hydroxypropylcellulose) (HPC)
[9] = dose: 100.0 mg/kg/injection, schedule: Q01DX009 (ip), vehicle: Klucel (hydroxypropylcellulose) (HPC)
[10] = dose: 200.0 mg/kg/injection, schedule: Q01DX009 (ip), vehicle: Klucel (hydroxypropylcellulose) (HPC)
[11] = dose: 50.0 mg/kg/injection, schedule: Q01DX005 (ip), vehicle: Klucel (hydroxypropylcellulose) (HPC)
[12] = dose: 100.0 mg/kg/injection, schedule: Q01DX005 (ip), vehicle: Klucel (hydroxypropylcellulose) (HPC)
[13] = dose: 400.0 mg/kg/injection, schedule: Q04DX003 (ip), vehicle: saline
[14] = dose: 50.0 mg/kg/injection, schedule: Q01DX009 (ip), vehicle: saline
[15] = dose: 100.0 mg/kg/injection, schedule: Q01DX009 (ip), vehicle: saline

With `CCOP(=O)(OCC)/C(C#N)=C\c1ccc(N(C)C)cc1` the T/C [1] was 100 % of control, the T/C [2] was 104 % of control and the T/C [3] was 100 % of control.
With `CCN(CC)CCN1N=C(c2ccccc2O)OCC1=O` the T/C [4] was 108 % of control, the T/C [5] was 103 % of control and the T/C [6] was 98 % of control.
For `Cc1c(NC(=O)CCCl)c(=O)oc2c(C)c3occc(=O)c3cc12`, the T/C [1] was 100 % of control, the T/C [2] was 99 % of control and the T/C [3] was 90 % of control.
In the case of `BrCc1ccc2ccc3ccc(CBr)nc3c2n1`, the T/C (dose: 7.5 mg/kg/injection, schedule: Q01DX005 (ip), vehicle: saline with Tween-80) is reported as 103 % of control, the T/C (dose: 15.0 mg/kg/injection, schedule: Q01DX005 (ip), vehicle: saline with Tween-80) is reported as 115 % of control and the T/C (dose: 30.0 mg/kg/injection, schedule: Q01DX005 (ip), vehicle: saline with Tween-80) is reported as 106 % of control.
`Cc1ccc(-c2cssc2=S)cc1` was tested, and the T/C [7] was 96 % of control, the T/C [4] was 95 % of control and the T/C [5] was 92 % of control. The T/C [6] was 90 % of control.
`CC1=NNC(=O)/C1=C/c1ccccc1Cl` was tested, and the T/C [8] was 104 % of control, the T/C [9] was 105 % of control and the T/C [10] was 112 % of control. The T/C (dose: 400.0 mg/kg/injection, schedule: Q01DX009 (ip), vehicle: Klucel (hydroxypropylcellulose) (HPC)) was 113 % of control.
In the case of `O=C(NC1CC1)C(Cl)Cl`, the T/C [11] is reported as 103 % of control and the T/C [12] is reported as 99 % of control.
For `O=C(O)COCC(F)(F)C(F)(F)C(F)(F)COCC(=O)O`, the T/C (dose: 176.0 mg/kg/injection, schedule: Q04DX003 (ip), vehicle: saline) was 100 % of control, the T/C (dose: 264.0 mg/kg/injection, schedule: Q04DX003 (ip), vehicle: saline) was 91 % of control and the T/C [13] was 100 % of control.
`COc1ccc(N2CCCSC2=S)cc1` was tested, and the T/C (dose: 50.0 mg/kg/injection, schedule: Q01DX005 (ip), vehicle: saline + Tween-80 + alcohol) was 101 % of control, the T/C (dose: 100.0 mg/kg/injection, schedule: Q01DX005 (ip), vehicle: saline + Tween-80 + alcohol) was 101 % of control and the T/C (dose: 200.0 mg/kg/injection, schedule: Q01DX005 (ip), vehicle: saline + Tween-80 + alcohol) was 100 % of control.
In the case of `CN1CCN(CN2C(=O)C3C4C=CC(C3C2=O)C2C(=O)N(CN3CCN(C)CC3)C(=O)C42)CC1` (stereo not given), the T/C (dose: 12.5 mg/kg/injection, schedule: Q01DX009 (ip), vehicle: saline) is reported as 108 % of control, the T/C (dose: 25.0 mg/kg/injection, schedule: Q01DX009 (ip), vehicle: saline) is reported as 105 % of control and the T/C [14] is reported as 108 % of control. For the same molecule, the T/C [15] was 113 % of control and the T/C (dose: 200.0 mg/kg/injection, schedule: Q01DX009 (ip), vehicle: saline) was 122 % of control.
`O=c1c2cc3c(cc2c2cccc4c2n1CC4)OCO3` was tested, and the T/C (dose: 25.0 mg/kg/injection, schedule: Q01DX009 (ip), vehicle: other) was 96 % of control, the T/C (dose: 50.0 mg/kg/injection, schedule: Q01DX009 (ip), vehicle: other) was 100 % of control and the T/C (dose: 100.0 mg/kg/injection, schedule: Q01DX009 (ip), vehicle: other) was 86 % of control. The T/C (dose: 200.0 mg/kg/injection, schedule: Q01DX009 (ip), vehicle: other) was 89 % of control and the T/C (dose: 400.0 mg/kg/injection, schedule: Q01DX009 (ip), vehicle: other) was 91 % of control.
For `O=C1C(Br)=C(Nc2ccccc2)C(=O)C(Br)=C1Nc1ccccc1`, the T/C [11] was 98 % of control and the T/C [12] was 93 % of control.
In the case of `CC1=C2CCCCC2(O)OC1=O` (stereo not given), the T/C (dose: 100.0 mg/kg/injection, schedule: Q01DX001 (ip), vehicle: saline) is reported as 100 % of control, the T/C (dose: 200.0 mg/kg/injection, schedule: Q01DX001 (ip), vehicle: saline) is reported as 100 % of control and the T/C (dose: 400.0 mg/kg/injection, schedule: Q01DX001 (ip), vehicle: saline) is reported as 103 % of control.
For `CC1(C)CC(=O)OC/C=C\CC(Cc2ccccc2)C(=O)C1` (stereo not given), the T/C (dose: 100.0 mg/kg/injection, schedule: Q04DX003 (ip), vehicle: saline) was 104 % of control, the T/C (dose: 200.0 mg/kg/injection, schedule: Q04DX003 (ip), vehicle: saline) was 97 % of control and the T/C [13] was 96 % of control.
For `Cc1ccc2nc(NC(=S)S)sc2c1`, the T/C (dose: 6.25 mg/kg/injection, schedule: Q01DX009 (ip), vehicle: Klucel (hydroxypropylcellulose) (HPC)) was 100 % of control, the T/C (dose: 12.5 mg/kg/injection, schedule: Q01DX009 (ip), vehicle: Klucel (hydroxypropylcellulose) (HPC)) was 107 % of control and the T/C (dose: 25.0 mg/kg/injection, schedule: Q01DX009 (ip), vehicle: Klucel (hydroxypropylcellulose) (HPC)) was 113 % of control. For the same molecule, the T/C [9] was 87 % of control.
With `CCSc1ncc(Br)c(Sc2nc(N)nc3nc[nH]c23)n1` the T/C (dose: 4.0 mg/kg/injection, schedule: Q04DX003 (ip), vehicle: saline with Tween-80) was 113 % of control, the T/C (dose: 6.25 mg/kg/injection, schedule: Q01DX009 (ip), vehicle: saline with Tween-80) was 122 % of control and the T/C (dose: 16.5 mg/kg/injection, schedule: Q04DX003 (ip), vehicle: saline with Tween-80) was 150 % of control. The T/C [7] was 90 % of control, the T/C (dose: 25.0 mg/kg/injection, schedule: Q04DX003 (ip), vehicle: saline with Tween-80) was 150 % of control and 159 % of control and the T/C (dose: 100.0 mg/kg/injection, schedule: Q04DX003 (ip), vehicle: saline with Tween-80) was 122 % of control.
In the case of `CC1CN1C(=O)Nc1cccc(Cl)c1` (stereo not given), the T/C [14] is reported as 100 % of control and the T/C [15] is reported as 102 % of control.
In the case of `O=C(O)CCC(=O)Nc1ccccc1C(=O)O`, the T/C [5] is reported as 110 % of control, the T/C [6] is reported as 100 % of control and the T/C (dose: 400.0 mg/kg/injection, schedule: Q01DX009 (ip), vehicle: saline with Tween-80) is reported as 110 % of control.
`N#CC1=C(N)OC(c2ccccc2)=C(C#N)C1c1ccccc1` (stereo not given) was tested, and the T/C (dose: 60.0 mg/kg/injection, schedule: Q01DX005 (ip), vehicle: saline with Tween-80) was 98 % of control, the T/C (dose: 120.0 mg/kg/injection, schedule: Q01DX005 (ip), vehicle: saline with Tween-80) was 96 % of control and the T/C (dose: 240.0 mg/kg/injection, schedule: Q01DX005 (ip), vehicle: saline with Tween-80) was 91 % of control.
`COc1ccc(CN2CC(=O)N3Cc4ccccc4CN3C(=O)C2)cc1` was tested, and the T/C (dose: 50.0 mg/kg/injection, schedule: Q01DX005 (ip), vehicle: saline with Tween-80) was 103 % of control, the T/C (dose: 100.0 mg/kg/injection, schedule: Q01DX005 (ip), vehicle: saline with Tween-80) was 103 % of control and the T/C (dose: 200.0 mg/kg/injection, schedule: Q01DX005 (ip), vehicle: saline with Tween-80) was 103 % of control.
`Cc1cc(C(C)(CC(C)C)c2ccc(O)c(C)c2)ccc1O` was tested, and the T/C [7] was 116 % of control and the T/C [4] was 98 % of control.
With `CC(=O)Oc1c(C)c(C)c(OC(C)=O)c(OC(C)=O)c1C` the T/C (dose: 100.0 mg/kg/injection, schedule: Q04DX002 (ip), vehicle: Klucel (hydroxypropylcellulose) (HPC)) was 93 % of control, the T/C (dose: 200.0 mg/kg/injection, schedule: Q04DX002 (ip), vehicle: Klucel (hydroxypropylcellulose) (HPC)) was 96 % of control and the T/C (dose: 400.0 mg/kg/injection, schedule: Q04DX002 (ip), vehicle: Klucel (hydroxypropylcellulose) (HPC)) was 90 % of control.
In the case of `NC(=S)N/N=C\C(=N/NC(N)=S)c1cccc([N+](=O)[O-])c1`, the T/C (dose: 12.5 mg/kg/injection, schedule: Q01DX009 (ip), vehicle: saline with Tween-80) is reported as 92 % of control, the T/C [7] is reported as 92 % of control and the T/C [4] is reported as 93 % of control and 96 % of control. For the same molecule, the T/C [5] was 96 % of control and the T/C [6] was 96 % of control.
In the case of `CC(=O)N(CC(=O)Nc1ccc(S(N)(=O)=O)cc1)C(C)C`, the T/C [8] is reported as 100 % of control, the T/C [9] is reported as 99 % of control and the T/C [10] is reported as 92 % of control.
`C/C(=N/NC(N)=S)c1cn[nH]c1C` was tested, and the T/C (dose: 15.0 mg/kg/injection, schedule: Q01DX005 (ip), vehicle: Klucel (hydroxypropylcellulose) (HPC)) was 102 % of control, the T/C (dose: 30.0 mg/kg/injection, schedule: Q01DX005 (ip), vehicle: Klucel (hydroxypropylcellulose) (HPC)) was 102 % of control and the T/C (dose: 60.0 mg/kg/injection, schedule: Q01DX005 (ip), vehicle: Klucel (hydroxypropylcellulose) (HPC)) was 114 % of control.
With `Cc1c2ccncc2cc2c1[nH]c1ccccc12` the T/C (dose: 50.0 mg/kg/injection, schedule: Q04DX003 (ip), vehicle: saline with Tween-80) was 160 % of control and the T/C (dose: 66.0 mg/kg/injection, schedule: Q04DX003 (ip), vehicle: saline with Tween-80) was 209 % of control.
